Experimental data taken from patent publication US20060058383A1 (priority 2004, published 2006).

What was measured:
Assay type in all cases: cell-based, human
Raji cells [1] = test: Drug combination index, median-effect analysis; conditions: combination with rapamycin (100 ng/ml), 24 h; CI less than 1 = synergistic
Experimental: FIGS. 35A-35D show synergistic cytotoxic effect of rapamycin and glycolycin (3-BrOP) in human lymphoma and leukemia cells. In FIG. 35A, the human lymphoma Raji cells were treated with 3-BrOP (30 μM), rapamycin (100 ng/ml), or their combinations as indicated, and apoptosis was measured by flow cytometry analysis after the cells were double-stained with annexin-V and PI as described in the Examples. In case of drug combination, cells were first treated with rapamycin for 18 h before addition of 3-BrOP and incubated for an additional 24 h or 48 h. In FIG. 35B, there is concentration-dependent induction of loss of cell viability by 3-BrOP in the presence and absence of rapamycin (100 ng/ml, 24 h) in Raji cells. Cells were double-stained with annexin-V and PI followed by flow cytometry analysis, and viable cells were expressed as % of control. […] Cell viability was determined as described above.
The above observations prompted the present inventors to use a formal drug combination analysis to determine if rapamycin and 3-BrOP have a synergistic effect. […] Cells were treated with various concentrations of 3-BrOP in the presence of a fixed concentration of rapamycin (100 ng/ml) for 24 h, and the percentage of apoptotic cells was quantitated by flow cytometry analysis using annexin-V/PI double staining. […]

Raji cells [2] = test: Cell growth by direct cell counting (Coulter Z2)
Experimental: A different assay was then used to further confirm the synergy between rapamycin and 3-BrOP. Raji cells were treated with 30 μM 3-BrOP, 100 ng/ml rapamycin, or their combination, and the numbers of cells were directly counted for consecutive 3 days, using a Coulter Z2 Particle Count & Size Analyzer.
Cell growth inhibition was determined by direct counting of the cells after they were treated with rapamycin, 3-BrOP, or their combination. A Coulter Z2 Particle Count & Size Analyzer was used to determine cell counts at 24 h, 48 h, and 72 h after drug incubation. Apoptosis was measured by flow cytometric analysis of cells stained with annexin V-FITC and propidium iodide (PI). Cells were treated with the indicated compounds under various incubation conditions as described in the figure legends. The samples were collected, washed with cold PBS, and then suspended in annexin-V binding buffer. The cells were stained with annexin V-FITC for 15 min at room temperature, washed, and then stained with PI. The samples were analyzed using a FACSCalibur flow cytometer equipped with CELLQuestPro software (Becton-Dickinson, San Jose, Calif.).

[3] = test system: p70S6K, 4E-BP-1 and BAD phosphorylation in Raji cells; test: Phosphorylation of mTOR downstream targets and BAD, western blot
Experimental: The phosphorylation of p70S6K and 4E-BP1, two target molecules of mTOR, was examined as indications of mTOR inhibition.
The effect of rapamycin on BAD phosphorylation in 3-BrOP-treated cells was examined.
Protein lysates were prepared from the control and drug-treated cells, and separated by electrophoresis on 10% SDS-PAGE. […] The antibodies were dilute at 1:1,000 unless indicated otherwise. The bound primary antibodies were detected using appropriate horseradish peroxidase-conjugated secondary antibodies, followed by detection with a SuperSignal enhanced chemiluminescence kit (Pierce, Rockford, Ill.). For sequential blotting, the membranes were stripped with a stripping buffer (Pierce, Rockford, Ill.) followed by re-blotting with proper antibodies.

## CCCOC(=O)C(=O)CBr [Glycolycin, propyl 3-bromo-2-oxopropionate]
Raji cells [1]
  drug combination index (CI): < 1.0
Raji cells [2]; 30 μM alone, up to 72 h
  decrease in cell numbers: ~35%
Raji cells [2]; 30 μM in combination with 100 ng/ml rapamycin
  cell growth: almost complete inhibition of cell growth
[3]; 20 μM, 6 hours
  BAD phosphorylation at Ser112: did not reduce
[3]; 40 μM in the presence of rapamycin (100 ng/ml)
  BAD phosphorylation at Ser112: complete abolished
[3]; 40 μM, 6 hours
  BAD phosphorylation at Ser112: substantial decrease
  phosphorylation of P70 S6K at Thr389 and 4E-BP-1 at Ser65: some inhibition
